From the supplement of paper PMC12463676, “Small-molecule dissolution of stress granules by redox modulation benefits ALS models” (Nature Chemical Biology, 2025)

Experiments:
lipoamide = compound: NC(=O)CCCCC1CCSS1 [lipoamide]; experiment: thermal stability z-score vs DMSO; higher = more thermally stabilized by treatment; settings: HeLa, lipoamide concentration 100 µM
Description: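 Cellular thermal proteome profiling in HeLa cells. Cells were treated with 100 µM lipoamide for 1 h, with or without 1 mM arsenate for a further 1 h, then heated to ten temperatures (37-66.3 °C), and soluble protein was quantified by TMT mass spectrometry relative to 0.1% DMSO controls. The thermal stability score (sum of log2 fold changes minus the abundance score) was transformed to a z-score; mean of n = 3 experiments.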

potassium arsenate = compound: O=[As]([O-])(O)O.[K+] [potassium arsenate]; experiment: as above; settings: HeLa; arsenate concentration 1 mM
Description: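 Cellular thermal proteome profiling in HeLa cells treated with 1 mM arsenate for 1 h (DMSO pretreatment), heated to ten temperatures (37-66.3 °C). Soluble protein was quantified by TMT mass spectrometry relative to DMSO controls; the thermal stability score was transformed to a z-score; mean of n = 3 experiments.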

[1] = arsenate co-treatment: 1 mM arsenate 1 h
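Further: each temperature applied for 3 min, abundance score taken as mean log2 fold change at the two lowest temperatures, z-score obtained by mean subtraction and division by SD.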

Chain of UniProt Q9BRT3 (Q9BRT3 whole entry): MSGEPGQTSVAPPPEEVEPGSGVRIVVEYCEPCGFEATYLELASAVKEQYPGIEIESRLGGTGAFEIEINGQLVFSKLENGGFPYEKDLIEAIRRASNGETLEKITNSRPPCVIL
Chain of UniProt Q5TF39 (Q5TF39 whole entry): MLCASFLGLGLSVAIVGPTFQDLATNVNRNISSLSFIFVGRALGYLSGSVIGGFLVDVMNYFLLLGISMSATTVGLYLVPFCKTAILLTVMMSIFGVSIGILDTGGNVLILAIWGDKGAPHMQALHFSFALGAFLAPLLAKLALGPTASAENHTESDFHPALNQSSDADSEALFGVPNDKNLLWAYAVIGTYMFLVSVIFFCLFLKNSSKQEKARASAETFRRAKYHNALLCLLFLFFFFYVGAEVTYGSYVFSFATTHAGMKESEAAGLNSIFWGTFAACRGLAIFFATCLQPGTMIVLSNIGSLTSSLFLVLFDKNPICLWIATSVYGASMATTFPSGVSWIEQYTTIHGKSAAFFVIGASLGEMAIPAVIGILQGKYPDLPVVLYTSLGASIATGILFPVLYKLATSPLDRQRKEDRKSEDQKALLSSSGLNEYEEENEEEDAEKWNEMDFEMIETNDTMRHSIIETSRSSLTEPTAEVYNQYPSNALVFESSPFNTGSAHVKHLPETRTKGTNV
Chain of UniProt Q8N3F8 (Q8N3F8 whole entry): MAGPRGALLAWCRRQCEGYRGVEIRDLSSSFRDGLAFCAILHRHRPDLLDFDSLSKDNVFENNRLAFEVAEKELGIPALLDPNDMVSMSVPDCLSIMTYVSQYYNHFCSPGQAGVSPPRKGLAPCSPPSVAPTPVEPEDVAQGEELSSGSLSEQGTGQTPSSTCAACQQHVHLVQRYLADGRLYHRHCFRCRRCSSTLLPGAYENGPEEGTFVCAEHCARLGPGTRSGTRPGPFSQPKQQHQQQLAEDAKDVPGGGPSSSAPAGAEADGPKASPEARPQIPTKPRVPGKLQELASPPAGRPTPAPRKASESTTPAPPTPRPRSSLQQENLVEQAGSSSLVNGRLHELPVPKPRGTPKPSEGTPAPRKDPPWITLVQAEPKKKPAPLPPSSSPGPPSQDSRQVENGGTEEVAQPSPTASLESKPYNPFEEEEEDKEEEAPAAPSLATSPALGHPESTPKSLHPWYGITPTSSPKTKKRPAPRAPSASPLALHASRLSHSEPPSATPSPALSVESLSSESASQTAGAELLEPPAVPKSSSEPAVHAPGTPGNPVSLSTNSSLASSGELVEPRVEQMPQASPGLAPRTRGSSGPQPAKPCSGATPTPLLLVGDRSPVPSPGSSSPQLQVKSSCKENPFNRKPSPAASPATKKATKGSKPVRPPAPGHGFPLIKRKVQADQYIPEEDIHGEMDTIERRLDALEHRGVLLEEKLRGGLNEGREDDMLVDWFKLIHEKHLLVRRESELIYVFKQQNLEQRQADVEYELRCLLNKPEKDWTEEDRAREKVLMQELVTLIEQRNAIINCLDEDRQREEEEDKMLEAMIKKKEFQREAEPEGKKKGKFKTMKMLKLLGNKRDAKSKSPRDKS
Chain of UniProt Q8IYU8 (Q8IYU8 whole entry): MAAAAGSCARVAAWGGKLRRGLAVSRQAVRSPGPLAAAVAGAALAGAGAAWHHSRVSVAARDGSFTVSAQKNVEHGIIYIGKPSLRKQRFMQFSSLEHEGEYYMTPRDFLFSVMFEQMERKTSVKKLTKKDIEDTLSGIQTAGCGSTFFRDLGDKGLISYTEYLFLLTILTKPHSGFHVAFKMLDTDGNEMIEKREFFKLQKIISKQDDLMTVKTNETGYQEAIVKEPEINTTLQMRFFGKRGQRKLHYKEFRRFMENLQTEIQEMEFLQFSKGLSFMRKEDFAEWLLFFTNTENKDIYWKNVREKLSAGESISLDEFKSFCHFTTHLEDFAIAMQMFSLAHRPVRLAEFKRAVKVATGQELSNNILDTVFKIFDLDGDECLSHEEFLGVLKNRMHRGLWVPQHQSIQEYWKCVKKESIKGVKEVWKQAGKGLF
Chain of UniProt Q5JRA6 (Q5JRA6 whole entry): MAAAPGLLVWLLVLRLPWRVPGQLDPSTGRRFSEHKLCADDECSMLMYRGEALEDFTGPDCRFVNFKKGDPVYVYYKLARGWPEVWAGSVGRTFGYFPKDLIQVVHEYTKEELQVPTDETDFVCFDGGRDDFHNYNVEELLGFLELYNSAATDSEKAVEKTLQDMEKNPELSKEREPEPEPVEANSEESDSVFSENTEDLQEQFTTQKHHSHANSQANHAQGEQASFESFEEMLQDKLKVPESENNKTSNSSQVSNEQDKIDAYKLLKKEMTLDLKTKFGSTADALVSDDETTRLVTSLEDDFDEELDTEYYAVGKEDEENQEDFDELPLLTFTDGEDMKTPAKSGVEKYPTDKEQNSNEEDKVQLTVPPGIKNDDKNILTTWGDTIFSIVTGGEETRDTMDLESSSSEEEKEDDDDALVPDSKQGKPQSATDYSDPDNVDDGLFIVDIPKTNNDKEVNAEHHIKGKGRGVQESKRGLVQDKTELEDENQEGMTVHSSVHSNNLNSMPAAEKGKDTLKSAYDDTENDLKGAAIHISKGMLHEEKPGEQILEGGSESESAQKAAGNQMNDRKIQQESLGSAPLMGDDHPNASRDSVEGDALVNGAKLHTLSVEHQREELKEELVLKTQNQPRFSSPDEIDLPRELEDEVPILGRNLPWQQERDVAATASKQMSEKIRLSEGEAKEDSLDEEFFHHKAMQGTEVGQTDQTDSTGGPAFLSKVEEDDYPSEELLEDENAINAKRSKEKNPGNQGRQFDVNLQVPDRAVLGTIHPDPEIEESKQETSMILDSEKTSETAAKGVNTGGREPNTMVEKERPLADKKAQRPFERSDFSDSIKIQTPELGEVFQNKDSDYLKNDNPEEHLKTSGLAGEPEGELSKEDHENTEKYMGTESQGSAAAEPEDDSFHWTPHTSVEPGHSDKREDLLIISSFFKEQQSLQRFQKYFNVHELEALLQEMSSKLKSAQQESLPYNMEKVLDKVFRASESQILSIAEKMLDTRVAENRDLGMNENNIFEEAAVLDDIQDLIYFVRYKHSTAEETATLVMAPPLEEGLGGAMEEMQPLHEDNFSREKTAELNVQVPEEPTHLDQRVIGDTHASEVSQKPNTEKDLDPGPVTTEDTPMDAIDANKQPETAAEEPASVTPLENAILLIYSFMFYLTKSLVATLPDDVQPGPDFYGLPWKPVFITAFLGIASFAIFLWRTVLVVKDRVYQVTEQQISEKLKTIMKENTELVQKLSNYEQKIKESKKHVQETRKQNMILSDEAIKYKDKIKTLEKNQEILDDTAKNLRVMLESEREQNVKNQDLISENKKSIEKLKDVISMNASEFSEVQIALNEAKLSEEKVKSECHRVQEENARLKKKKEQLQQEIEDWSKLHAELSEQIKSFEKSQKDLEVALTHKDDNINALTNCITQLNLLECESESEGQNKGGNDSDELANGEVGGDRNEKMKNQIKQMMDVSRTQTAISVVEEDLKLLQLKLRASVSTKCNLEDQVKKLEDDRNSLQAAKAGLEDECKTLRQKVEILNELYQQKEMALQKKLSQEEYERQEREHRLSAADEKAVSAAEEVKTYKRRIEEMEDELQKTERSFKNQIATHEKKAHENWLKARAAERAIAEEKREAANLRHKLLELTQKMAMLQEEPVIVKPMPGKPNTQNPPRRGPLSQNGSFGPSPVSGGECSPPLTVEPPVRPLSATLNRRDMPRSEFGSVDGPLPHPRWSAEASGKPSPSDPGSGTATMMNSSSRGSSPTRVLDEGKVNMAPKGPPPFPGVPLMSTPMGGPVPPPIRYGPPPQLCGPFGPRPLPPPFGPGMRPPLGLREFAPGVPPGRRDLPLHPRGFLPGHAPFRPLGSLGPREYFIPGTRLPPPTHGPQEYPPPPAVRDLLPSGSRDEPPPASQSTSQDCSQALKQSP
Chain of UniProt Q9NYP9 (Q9NYP9 whole entry): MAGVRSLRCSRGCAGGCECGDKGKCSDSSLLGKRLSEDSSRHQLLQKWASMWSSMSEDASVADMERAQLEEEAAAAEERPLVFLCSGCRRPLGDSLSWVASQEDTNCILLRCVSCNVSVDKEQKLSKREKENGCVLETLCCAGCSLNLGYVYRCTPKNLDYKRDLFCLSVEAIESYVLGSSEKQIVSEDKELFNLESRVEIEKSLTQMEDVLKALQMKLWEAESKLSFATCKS
Chain of UniProt Q9UL63 (Q9UL63 whole entry): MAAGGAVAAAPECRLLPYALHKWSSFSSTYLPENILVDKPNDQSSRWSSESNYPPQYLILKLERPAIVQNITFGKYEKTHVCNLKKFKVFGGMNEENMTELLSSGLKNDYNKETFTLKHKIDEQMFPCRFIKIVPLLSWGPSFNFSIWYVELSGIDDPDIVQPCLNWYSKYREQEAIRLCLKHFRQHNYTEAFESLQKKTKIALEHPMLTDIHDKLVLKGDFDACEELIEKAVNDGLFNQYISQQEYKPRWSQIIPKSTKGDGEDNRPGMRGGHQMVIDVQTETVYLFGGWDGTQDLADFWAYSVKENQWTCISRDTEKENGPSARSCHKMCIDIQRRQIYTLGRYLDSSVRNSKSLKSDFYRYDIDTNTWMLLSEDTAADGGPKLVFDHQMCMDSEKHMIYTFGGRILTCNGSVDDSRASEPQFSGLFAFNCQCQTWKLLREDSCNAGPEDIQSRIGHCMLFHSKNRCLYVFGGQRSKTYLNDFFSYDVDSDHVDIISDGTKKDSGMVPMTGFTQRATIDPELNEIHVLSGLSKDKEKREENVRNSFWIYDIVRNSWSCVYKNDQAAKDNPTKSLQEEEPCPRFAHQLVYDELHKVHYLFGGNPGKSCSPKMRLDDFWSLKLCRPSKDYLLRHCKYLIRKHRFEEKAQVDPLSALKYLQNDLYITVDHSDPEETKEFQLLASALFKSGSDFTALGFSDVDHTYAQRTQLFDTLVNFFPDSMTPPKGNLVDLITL
Chain of UniProt Q8WXB1 (Q8WXB1 whole entry): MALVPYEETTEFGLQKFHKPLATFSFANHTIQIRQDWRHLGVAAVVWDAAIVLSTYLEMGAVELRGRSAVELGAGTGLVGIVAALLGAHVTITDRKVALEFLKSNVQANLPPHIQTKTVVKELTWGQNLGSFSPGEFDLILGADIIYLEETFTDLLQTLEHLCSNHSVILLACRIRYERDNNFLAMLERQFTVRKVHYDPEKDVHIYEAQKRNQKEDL

Target	thermal stability z-score (lipoamide; [1])	thermal stability z-score (lipoamide; arsenate co-treatment: none)	thermal stability z-score (potassium arsenate)
METTL10 (UniProt Q5JPI9)	-0.0093	0.0402	0.206
METTL13 (UniProt Q8N6R0)	-0.507	-0.621	0.0691
METTL14 (UniProt Q9HCE5)	0.355	-0.836	-0.164
METTL15 (UniProt A6NJ78)	0.0439	-0.103	0.348
METTL16 (UniProt Q86W50)	-0.248	-0.347	-0.0708
METTL21A (UniProt Q8WXB1)	0.425	-0.307	0.26
MFAP1 (UniProt P55081)	0.755	0.245	1.73
MFF (UniProt Q9GZY8)	-0.338	-0.0711	0.0903
MFN1 (UniProt Q8IWA4)	-0.522	-0.191	0.157
MFN2 (UniProt O95140)	-0.0814	-0.338	0.252
MFSD4B (UniProt Q5TF39)	-0.227	0.265	-0.129
MFSD5 (UniProt Q6N075)	0.0483	0.442	0.661
MFSD12 (UniProt Q6NUT3)	-0.485	-1.79	1.14
MGAT1 (UniProt P26572)	-0.313	-0.685	-0.0516
MGAT2 (UniProt Q10469)	-0.206	-0.0594	0.24
MGAT4B (UniProt Q9UQ53)	0.713	-0.264	0.26
MGEA5 (UniProt O60502)	-0.365	-0.157	-0.187
MGLL (UniProt Q99685)	0.592	0.117	-0.132
MGME1 (UniProt Q9BQP7)	0.201	0.117	-0.00686
MGRN1 (UniProt O60291)	-0.792	-0.153	-0.181
MGST1 (UniProt P10620)	0.304	-0.147	0.892
MGST3 (UniProt O14880)	0.65	0.431	2.22
MIA3 (UniProt Q5JRA6)	-3.32	-2.72	1.39
MIB1 (UniProt Q86YT6)	-0.621	-0.586	-1.05
MICA (UniProt Q29983)	-1.72	-3.33	-0.775
MICAL3 (UniProt Q7RTP6)	0.231	0.334	0.0242
MICALL1 (UniProt Q8N3F8)	-0.217	0.212	-0.602
MICALL2 (UniProt Q8IY33)	-0.157	0.00775	-0.0438

Target	thermal stability z-score (lipoamide; [1])	thermal stability z-score (lipoamide; arsenate co-treatment: none)	thermal stability z-score (potassium arsenate)
MICU1 (UniProt Q9BPX6)	-0.305	-0.0396	0.746
MICU2 (UniProt Q8IYU8)	-0.422	-0.315	0.583
MID1 (UniProt O15344)	-0.525	-0.224	-0.963
MID1IP1 (UniProt Q9NPA3)	-0.135	0.206	0.151
MIEF1	-0.243	-0.035	-0.198
MIEN1 (UniProt Q9BRT3)	0.165	-0.595	0.969
MIER1 (UniProt Q8N108)	1.22	1.38	0.0984
MIF4GD (UniProt A9UHW6)	0.658	0.0749	-0.165
MIF (UniProt P14174)	0.245	-0.0795	-0.0642
MINA (UniProt Q8IUF8)	0.0507	0.508	-1.34
MINK1 (UniProt Q8N4C8)	-0.526	0.0558	-0.0337
MINPP1 (UniProt Q9UNW1)	-3.92	-4.05	-0.105
MIOS (UniProt Q9NXC5)	0.0112	0.085	-0.469
MIPEP (UniProt Q99797)	-0.162	0.0258	-0.271
MIS12 (UniProt Q9H081)	-0.0248	-0.061	0.00203
MIS18A (UniProt Q9NYP9)	-0.127	0.246	0.683
MISP (UniProt Q8IVT2)	0.196	0.386	-0.461
MITD1 (UniProt Q8WV92)	0.39	0.109	0.168
MITF (UniProt O75030)	-0.413	-0.377	0.297
MKI67 (UniProt P46013)	1.7	1.37	0.155
MKL2 (UniProt Q9ULH7)	-0.208	-0.342	0.418
MKLN1 (UniProt Q9UL63)	-0.128	-0.114	-0.403
MKNK1 (UniProt Q9BUB5)	-0.146	-0.928	-1.53
MKNK2 (UniProt Q9HBH9)	-0.569	0.232	0.192
MKRN1 (UniProt Q9UHC7)	-0.0831	-0.0834	-0.138
MKRN2 (UniProt Q9H000)	0.303	0.829	-0.0571
MLEC (UniProt Q14165)	-3.66	-2.94	0.385
